# Entries after “also recorded” stand apart in the source; their conditions may differ.
# Tests used:
# [1] = tested on: CuFi-1 (ΔF508/ΔF508) airway epithelia; assay: Ussing chamber permeabilization of differentiated CF airway epithelia; format: cell-based, human; conditions: differentiated CuFi-1 epithelia
# Experimental: A series of natural products and synthetic compounds reported previously to permeabilize liposomes, cells, and/or nasal epithelia of mice to anions (11-14) were tested using an Ussing chamber and differentiated cultures of airway epithelia derived from an immortalized airway epithelial cell line from a CF patient having the most common ΔF508/ΔF508 genotype (CuFi-1) (15). […] The capacity for AmB and C35deOAmB to transport bicarbonate across cholesterol-containing POPC liposomes was tested using an adapted ^13C NMR-based assay (18).
# [2] = 13C NMR H13CO3- efflux from liposomes; format: biochemical; conditions: 1:1,000 AmB:lipid, vs DMSO or water vehicle
# [3] = tested on: primary cultured airway epithelia derived from humans with CF; assay: ASL pH in primary cultured airway epithelia from CF donors; format: cell-based, human
# Experimental: Airway epithelial cells were obtained from human trachea and bronchi of CF and non-CF specimens obtained from the Iowa Donor Network, either as post-mortem specimens or from tissue deemed not fit for transplant. Studies were approved by the University of Iowa Institutional Review Board. After pronase enzymatic digestion, cells were seeded onto collagen-coated semi-permeable membranes (0.33-1.12 cm^2, Corning 3470 polyester, 3460 polyester, 3413 polycarbonate) and grown at an air-liquid interface (52). Airway epithelial cell cultures were analyzed after they had differentiated and at least 14 days post-seeding.
# Small diameter NuLi, CuFi, and primary cultured epithelia were used for this experiment (0.33 cm^2). The ratiometric pH indicator SNARF-conjugated dextran (Molecular Probes) was used to measure ASL pH. SNARF powder was suspended via sonication in perfluorocarbon (FC-72, Sigma) and distributed onto the apical surface. ASL pH was measured 2 hr later (3, 4, 25). SNARF was excited at 488 nm and emission was recorded at 580 nm and 640 nm using a Zeiss LSM 800 microscope at 40× water immersion for cell line cultures and a Zeiss LSM 510 microscope for primary cultures. To generate a standard curve for pH determination, SNARF was dissolved in colorless pH standards and fluorescence ratios were converted to pH.
# Agents tested in this assay were first lyophilized into powder and then suspended in the appropriate volume of perfluorocarbon (FC-72, Sigma) and sonicated for 1 minute to suspend. AmBisome should not be sonicated; instead, the fine powder was suspended by vortexing.
# In all experiments, ASL pH of compound-treated epithelia was measured compared the results to vehicle-treated epithelia.
# For apical AmB administration, cultured airway epithelia were incubated for 30 min-48 hrs at 37° C. before measurement of ASL pH. For AmB-cholesterol complex and C35deOAmB administration, cultured airway epithelia were incubated for 48 hrs at 37° C. before measurement of ASL pH. To test the effect of […] ATPase inhibition, AmB was administered 47 hours prior to 10 mM ouabain addition, and cultured airway epithelia were incubated for an additional 1 hr at 37° C. before measurement of ASL pH. For 10 μM ivacaftor/10 μM forskolin administration, cultured airway epithelia were incubated for 2 hrs at 37° C. before measurement of ASL pH (25). For basolateral AmB administration, a 2 mM stock of AmB in DMSO was diluted 1000-fold to a final concentration of 2 μM in USG media. The basolateral media of cultured airway epithelia was replaced with the AmB-containing USG media and incubated for 48 hrs at 37° C. before measurement of ASL pH.
# [4] = tested on: CuFi-1 epithelia; assay: ASL height by confocal microscopy; format: cell-based, human
# Experimental: ASL height was studied using an established fluorescent dye assay (60, 61). Small diameter NuLi and CuFi-1 cultured epithelia were used for this experiment (0.33 cm^2). 24 hours prior to the start of experiment, the apical side of all cultured epithelia was rinsed three times with warm PBS to remove excess mucus. NuLi epithelia were treated with perfluorocarbon (FC-72) vehicle or 500 µM basolateral bumetanide in DMSO vehicle applied to the media, and CuFi epithelia were treated with 20 μL vehicle, 0.005, 0.5, or 50 μM AmB, or 0.5 μM C35deOAmB suspended in perfluorocarbon (FC-72, Sigma), with or without 500 μM basolateral bumetanide in DMSO vehicle applied to the media and incubated for 24 hours at 37° C. After 24 hours, 2.5 μL of a 2 mg/mL 70 kDa Texas Red-dextran conjugate (Molecular Probes) solution in PBS was added to the apical side of the epithelia, followed by 100 μL of FC-770 to prevent evaporation. Then the culture support was placed on top of 100 μL of PBS on a 10 mm glass bottom Fluorodish for imaging (World Precision Instruments). Epithelia were imaged immediately after dye addition and again at 24 hours to examine dye absorption. Three Z-stack images per membrane were taken on an Zeiss LSM700 confocal microscope at 40× oil immersion. These images were analyzed using ImageJ (62) to determine the average ASL height in the center 1300 pixels of each image. Images were smoothed, converted to 8-bit, and thresholded to most accurately represent the red area. The parameters for Analyze Particles were particles from 1-Infinity μm^2 in size and from 0%-100% circularity. Height was determined by dividing the area output in pixels by the known 1300 pixel width and converted to microns using the known scaling factor of 0.49 µm/pixel.
# [5] = tested on: protein ion channel-deficient yeast; conditions: cited from earlier work
# [6] = tested on: yeast; conditions: cited from earlier work
smiles,measurement,setting,value
"C[C@@H]1[C@H](O)[C@@H](C)/C=C/C=C/C=C/C=C/C=C/C=C/C=C/[C@H](O[C@@H]2O[C@H](C)[C@@H](O)[C@H](N)[C@@H]2O)C[C@@H]2O[C@](O)(C[C@@H](O)C[C@@H](O)[C@H](O)CC[C@@H](O)C[C@@H](O)CC(=O)O[C@H]1C)C[C@H](O)[C@H]2C(=O)O [AmB, amphotericin B]",change in short circuit current / permeabilization of epithelia,[1],exceptionally effective in causing a change in short circuit current
same,H^13CO3^− efflux from liposomes,[2],AmB is able to facilitate transmembrane bicarbonate efflux; also recorded: Robust and rapid release; also recorded: caused H^13CO3^− efflux; also recorded: AmB is able to facilitate HCO3^− efflux
same,"ASL pH, apical addition","[3]; 9 donors, 2 μM, 48 h",caused an increase in ASL pH across a wide range of different genotypes; also recorded: increased ASL pH; also recorded: restores ASL pH
same,"ASL pH, basolateral addition of AmB","[3]; AmB 2 μM basolateral, 48 h",did not increase ASL pH
same,average increase in ASL pH,[3]; apical AmB 2 μM,0.2 pH units
same,time for which the increase in ASL pH is sustained,[3]; apical AmB 2 μM,at least 48 hours
same,"ASL height, basolateral AmB",[4],did not increase ASL height
same,"ASL height, apical addition",[4]; 0.5 μM,increased ASL height in CuFi-1 epithelia to match that of NuLi epithelia; also recorded: increases ASL height
same,range of doses for which yeast growth rescue is observed,[5]; AmB pre-complexed with ergosterol,extended by more than an order of magnitude
same,yeast growth rescue,[5],can restore growth in protein ion channel-deficient yeast; also recorded: restores potassium transport and thus growth in yeast missing the potassium-selective Trk transporters
same,toxicity / fungicidal activity to yeast,[6],highly toxic to yeast

# From patent US12090164B2, “Genotype-agnostic rescue of cystic fibrosis with small molecule bicarbonate channels” (The Board of Trustees of the University of Illinois, priority 2017, dated 2024)
